Experimental data taken from EP0688336B1, “PEPTIDE BORONIC ACID DERIVATIVES HAVING PROTEASE INHIBITING ACTIVITY” (Novartis AG, priority 1993, dated 1994).

Columns and labels:
thrombin = thrombin (Homo sapiens, UniProt P00734); conditions: cited from earlier work
[1] = in vivo; cited from earlier work
Washed human platelets = experiment: In vitro platelet aggregation assay induced by thrombin; type: cell-based; conditions: aggregation induced by 1 nM human thrombin
Method: Washed human platelets are prepared by a modification of the method of Ardlie ([…]. 1970, 19:7-17). Washed platelet suspension (0.46 ml) is kept at 37°C and stirred at 1100 rpm. After the addition of the substance to be tested or solvent. the platelets are maintained for 2 min before aggregation is induced by 1 nM human thrombin. The extent of platelet aggregation is quantitated by the maximum aggregation amplitude and inhibition of aggregation rate observed in the absence of inhibitor.

thrombus formation = experiment: Arterio-venous shunt thrombosis model; type: in vivo; conditions: rat
Method: In the arterio-venous shunt thrombosis model in the rat, a modification of the model described by Butler et al. (Blood Coag. Fibrinol., Vol. 3, (1992), page 155), the compounds of the invention prevent thrombus formation in a dose dependent manner. Using the compound of Example 1, thrombus formation is inhibited by 21% at a dose of 0.3 mg/kg i.v. and blocked by a dose of 3 mg/kg i.v.

[2] = test system: pooled citrated human plasma; experiment: In vitro coagulation assay: thrombin time (TT); type: biochemical; conditions: final thrombin concentration 5 U/ml; 10 min at 37°C preincubation
Method: (§1) In vitro coagulation assays are performed with pooled citrated human plasma. Substance to be tested or solvent are incubated with plasma for 10 min at 37°C prior to assay. Thrombin time(TT) determinations are performed at a final thrombin concentration of 5 U/ml. Activated partial thromboplastin time (APTT) is determined by incubating 0.1 ml plasma ± substance to be tested with 0.1 ml purified soya bean phospholipid in ellagic acid (Actin-FS) for 4 min at 37°C and followed by the addition of 0.1 ml CaCl2 (50mM). […] With the compound of Example 1, prolongation of TT above 300 sec is achieved at 1.8 µM, elevation of APTT to 2x the control value is achieved at 4.4 µM.

[3] = test system: pooled citrated human plasma; experiment: In vitro coagulation assay: activated partial thromboplastin time (APTT); type: biochemical; conditions: Actin-FS, 4 min at 37°C, CaCl2
Method: as §1

SMILES | inhibition in vitro (thrombin) | LD50 value [1] | IC50 (Washed human platelets) | thrombus formation is inhibited (thrombus formation; dose of 0.3 mg/kg i.v.) | thrombus formation (thrombus formation; dose of 3 mg/kg i.v.) | concentration at which prolongation of TT above 300 sec is achieved [2] | concentration at which elevation of APTT to 2x the control value is achieved [3]
N=C(N)NCCC[C@@H](C=O)NC(=O)[C@@H]1CCCN1C(=O)[C@H](N)Cc1ccccc1 [D-Phe-Pro-Arginal] | ~10^-8 M | quite a low |  |  |  |  | 
CC(C)(C)OC(=O)NC(C[Si](C)(C)C)C(=O)N1CCCC1C(=O)NC(CCCCO)B1OC2CC3CC(C3(C)C)C2(C)O1 [Example 1, Boc-D-TMSal-Pro-NH-CH[(CH2)4OH]B-OPin] |  |  | 3.8 nM | 21% | blocked | 1.8 µM | 4.4 µM
NC(N)=NCCC[C@H](NC(=O)[C@@H]1CCCN1C(=O)[C@H](N)Cc1ccccc1)C(=O)CCl [D-Phe-Pro-Arg-CH2Cl] | ~10^-8 M |  |  |  |  |  | 
